Test results as given in article PMC12459020, “Chemical Probes that Target a Dissociative LuxR-Type Quorum Sensing Receptor in Gram-Negative Bacteria” (ACS Chemical Biology, 2025).
Entries after “also recorded” stand apart in the source; their conditions may differ. Read-outs that look alike come from different tables or passages of the source.

What was measured:
[1] = molecular target: T1, EsaR (Pantoea stewartii subsp. stewartii, UniProt P54293); test: cell-based; settings: for activation at 100 µM / inhibition at 100 µM: 3.5 h; for activation at 100 µM: read-out: EsaR-repressed (pesaR) [%] agonism; for inhibition at 100 µM: read-out: EsaR-repressed (pesaR) antagonism
T1 construct: expressed in transfected cells; host or cells: E. coli JLD271 (K12 ΔsdiA), arabinose-induced pJN105-esaR
T1 sequence (P54293 whole entry): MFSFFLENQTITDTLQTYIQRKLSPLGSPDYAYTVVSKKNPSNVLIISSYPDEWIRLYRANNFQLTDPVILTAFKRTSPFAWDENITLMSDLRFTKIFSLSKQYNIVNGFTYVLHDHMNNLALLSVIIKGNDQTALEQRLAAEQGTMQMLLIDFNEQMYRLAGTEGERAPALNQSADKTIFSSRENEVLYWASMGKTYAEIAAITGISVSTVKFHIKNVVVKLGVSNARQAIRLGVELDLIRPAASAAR
Text: (§1) EsaR transcriptional activation and repression were examined using E. coli and P. stewartii reporters (strains and plasmids listed in Table S1; see Methods section for assay details). […] We constructed reporters in E. coli based on previously reported EsaR reporters (Table S1). Each strain contained an EsaR expression plasmid (pJN105-esaR) and a reporter plasmid with either an EsaR-activated promoter (pesaS) or an EsaR-repressed promoter (pesaR) upstream of luxABCDE or GFP.
(§2) Gibson assembly was used to create all constructs. Plasmid pJN105-esaR was created by amplifying esaR from pAC-esaR and inserting it into pJN105. pesaSlux was created by inserting pesaS, amplified from pPesaR-AC:gfp, into the pCS-pesaRlux backbone. The pesaR promoter was amplified from pCS-pesaRlux and inserted into the pPesaR-AC:gfp backbone to create pesaR:GFP. P. stewartii reporter strains were created by transforming pesaR:GFP or pPesaR-AC:gfp into ESN51 by conjugation using E. coli S17 λpir as the donor strain. See SI for details of E. coli ExpR2 reporter construction.
(§3) Overnight cultures were diluted 1:10 in LB medium with appropriate antibiotics and grown at 37 °C (200 rpm) to an OD600 of 0.22–0.27 before induction with 4 mg mL^–1 arabinose. OD600 was measured by placing 200 μL of culture into a 96-well plate and reading optical density using the BioTek Synergy 2 plate reader. Assays were performed in technical triplicate in clear-bottom, white and clear-bottom, black 96-well microtiter plates (Corning Costar 3903 and 3904) for luminescence and fluorescence reporters, respectively. Compounds were dissolved in DMSO, and 2 μL of this stock, or DMSO as a negative control, was added to each well prior to adding 198 μL of induced culture. Plates were incubated at 37 °C (200 rpm) for 3.5 h. Each well was mixed by pipetting before reading OD600 and either luminescence or fluorescence. Single-point screens were performed with one or two biological replicates, and all dose–response curves were performed in biological triplicate. EC50 values were calculated based on a nonlinear regression of log(concentration) vs response (three parameters) using GraphPad Prism 9 software.

[2] = molecular target: T1, EsaR; test: cell-based; settings: for activation at 100 µM / inhibition at 100 µM: 3.5 h; for activation at 100 µM: read-out: EsaR-activated (pesaS) [%] agonism; for inhibition at 100 µM: read-out: EsaR-activated (pesaS) antagonism; for EsaR agonism, in words / EsaR antagonism, in words: E. coli EsaR reporters; for EsaR agonism, in words: primary screen at 100 μM; for EsaR antagonism, in words: competed against OHHL at approx. EC50; for EsaR agonism at 100 μM (bound stated in text): E. coli EsaR reporter
Text: as §1, §2, §3

[3] = system: ExpR1; settings: cited from earlier work; for ExpR1 [%] (agonism, activation): compounds at 200 μM, cellulase activity in P. versatile AC5117, ref Palmer et al., 2011 (main ref 44, SI ref 6); for ExpR1 antagonism: 5 µM compound against 5 µM OHHL, negative values indicate potential activators, ref 6 (SI; Palmer et al., 2011)
[4] = system: ExpR2; settings: cited from earlier work; for ExpR2 [%] (agonism, percent activation): compounds at 200 μM, cellulase activity in P. versatile AC5099, ref Palmer et al., 2011 (main ref 44, SI ref 6); for ExpR2 antagonism (percent inhibition): 5 µM compound against 5 µM OHHL, negative values indicate potential activators
[5] = system: LuxR; settings: cited from earlier work; for LuxR [%] (agonism, activation): compounds at 200 μM, luminescence in V. fischeri ES114 (ΔluxI), ref Palmer et al., 2011 (main ref 44, SI ref 6); for LuxR antagonism: 5 µM compound against 5 µM OHHL, negative values indicate potential activators, ref 6 (SI; Palmer et al., 2011)
[6] = ref 6 (SI; Palmer et al., 2011)

Compound	ExpR1 [%] (agonism, activation) [3]	activation at 100 µM [1] [%]	ExpR2 [%] (agonism, percent activation) [4]	activation at 100 µM [2] [%]	LuxR [%] (agonism, activation) [5]	ExpR1 antagonism [3] [%]	inhibition at 100 µM [1] [%]	ExpR2 antagonism (percent inhibition) [4, 6] [%]	inhibition at 100 µM [2] [%]	LuxR antagonism [5] [%]	other results
CCCS(=O)(=O)N[C@H]1CCOC1=O [A8]	–	–	–	–	–	–	–	–	–	–	EC50 [1]: ≥ 71 µM; EC50 [2]: ≥ 66 µM
CCCCCS(=O)(=O)N[C@H]1CCOC1=O [A10]	–	–	–	–	–	–	–	–	–	–	EC50 [1]: 17 µM; EC50 [2]: 17 µM; fold less potent than hexanoyl HL in EsaR ([2]; E. coli EsaR reporter EC50 values): about 3 fold
O=C(N[C@H]1CCOC1=O)c1ccc(Br)cc1 [B6]	2	11	7	-4	2	–	–	–	–	–	–
O=C(N[C@H]1CCOC1=O)c1ccccc1 [B8]	0	6	6	2	2	37	-4	23	-4	34	–
O=C(CCc1ccccc1)N[C@H]1CCOC1=O [B9]	4	6	12	23	3	48	-10	37	-24	44	–
O=C(/C=C/c1ccccc1)N[C@H]1CCOC1=O [B10]	4	-2	18	12	3	57	17	49	-6	48	–
CCCC(=O)N[C@H]1CCOC1=O [BHL, reference compound]	0	6	17	26	0	48	-46	19	-22	43	–
O=C(Cc1ccccc1)N[C@H]1CCOC1=O [C1]	6	7	21	17	3	4	-61	11	-13	14	–
O=C(Cc1ccc(F)cc1)N[C@H]1CCOC1=O [C2]	4	-2	14	4	2	64	-50	23	-14	59	–
O=C(Cc1ccccc1F)N[C@H]1CCOC1=O [C4]	8	-3	24	-1	2	44	15	27	-9	49	–
O=C(Cc1ccc(Cl)cc1)N[C@H]1CCOC1=O [C5, 4-Cl PHL]	5	3	29	-1	3	78	2	48	-3	75	EsaR agonism, in words [2]: nearly inactive
CCCCCCCCCC(=O)NC1CCCC1 [C10-CPA, reference compound]	–	–	–	–	–	–	–	–	–	–	EsaR antagonism, in words [2]: did not show antagonism; also recorded: None of these compounds antagonized EsaR
O=C(Cc1ccc(I)cc1)N[C@H]1CCOC1=O [C10]	6	0.4	19	7	–	73	25	68	-5	–	IC50 ([4]; previously reported phenotypic reporter data, ref 6 (SI; Palmer et al., 2011)): 0.9 µM
O=C(CCc1cccc([N+](=O)[O-])c1)N[C@H]1CCOC1=O [E38]	–	–	–	–	–	–	–	–	–	–	EC50 [2]: ≥ 64 µM
O=C(Cc1cccc([N+](=O)[O-])c1)NC1CCCC1 [F18]	–	–	–	–	–	–	–	–	–	–	EsaR antagonism, in words [2]: None of these compounds antagonized EsaR
Cc1ccc(CS(=O)(=O)N[C@H]2CCOC2=O)cc1 [GAF 13]	–	–	–	–	–	–	–	–	–	–	EsaR agonism at 100 μM (bound stated in text) [2]: ≤ 50%
O=C1OCC[C@@H]1NS(=O)(=O)Cc1cccc(Cl)c1 [GAF 33]	–	–	–	–	–	–	–	–	–	–	EsaR agonism at 100 μM (bound stated in text) [2]: ≤ 50%
O=C1OCC[C@@H]1NS(=O)(=O)Cc1cccc(Br)c1 [GAF 41]	–	–	–	–	–	–	–	–	–	–	EsaR agonism at 100 μM (bound stated in text) [2]: ≤ 50%
O=C1OCC[C@@H]1NS(=O)(=O)c1ccc(Cl)c(Cl)c1Cl [GAF 45]	–	–	–	–	–	–	–	–	–	–	EC50 [1]: 4.9 µM; EC50 [2]: 4.7 µM
O=C1OCC[C@@H]1NS(=O)(=O)c1cc(Cl)cc(Cl)c1 [GAF 50]	–	–	–	–	–	–	–	–	–	–	EC50 [1]: 24 µM; EC50 [2]: 24 µM
CC(=O)CC(=O)N[C@H]1CCOC1=O [OBHL, reference compound]	–	–	–	–	–	–	–	–	–	–	EC50 [1]: 97 µM
CCCC(=O)NC1CCCC1 [RN4]	–	–	–	–	–	–	–	–	–	–	EsaR antagonism, in words [2]: None of these compounds antagonized EsaR
O=C(NC1CCCC1)C1CCC1 [RN13]	–	–	–	–	–	–	–	–	–	–	EsaR antagonism, in words [2]: None of these compounds antagonized EsaR; EsaR agonism, in words [2]: moderate agonist
O=C(COc1ccc(I)cc1)NC1CCCC1 [RN17]	–	–	–	–	–	–	–	–	–	–	EsaR antagonism, in words [2]: None of these compounds antagonized EsaR
CC(C)CC(=O)NC1CCCC1 [RN20]	–	–	–	–	–	–	–	–	–	–	EsaR antagonism, in words [2]: None of these compounds antagonized EsaR
CCCCCCCCCC(=O)CC(=O)Nc1ccccc1 [V-06–018, reference compound]	–	–	–	–	–	–	–	–	–	–	EsaR antagonism, in words, EsaR-repressed promoter ([1]; E. coli reporter, competed against OHHL at approx. EC50): inactive as EsaR antagonists; EsaR antagonism, in words [2]: inactive as EsaR antagonists
